The values below come from paper PMC9490236, “Accurate de novo design of membrane-traversing macrocycles” (Cell, 2022).

Where a SMILES comes first, the peptide text is derived from it. [ ]: non-standard residue; d: D form. NMeF = CN[C@@H](Cc1ccccc1)C(=O)O; dNMeF = CN[C@H](Cc1ccccc1)C(=O)O; NMeL = CN[C@@H](CC(C)C)C(=O)O; dNMeL = CN[C@H](CC(C)C)C(=O)O; NMeM = CN[C@@H](CCSC)C(=O)O; NMeA = CN[C@@H](C)C(=O)O; Nle = CCCC[C@H](N)C(=O)O; dNMeA = CN[C@H](C)C(=O)O; Sar = CNCC(=O)O

The conditions of one series: Caco-2.
For the compound `CC(C)C[C@@H]1NC(=O)[C@@H]2CCCN2C(=O)[C@H]2CCCN2C(=O)CN(C)C(=O)[C@@H](Cc2ccccc2)N(C)C(=O)[C@@H](CC(C)C)NC(=O)[C@@H](CC(C)C)N(C)C(=O)[C@@H]2CCCN2C(=O)[C@H](CC(C)C)N(C)C(=O)[C@H](CC(C)C)N(C)C1=O` [Design D10.22, PRO LEU *LEU *LEU PRO *DLEU DLEU *DPHE *GLY DPRO] (cyclo(L[NMeL][NMeL]P[dNMeL][dL][dNMeF][Sar][dP]P)), the “permeability in transwell assays” value is recorded as “not permeable”.
On the same count and under the same terms, next, `CC(C)C[C@@H]1NC(=O)[C@@H](CC(C)C)N(C)C(=O)[C@@H]2CCCN2C(=O)[C@H](CC(C)C)N(C)C(=O)[C@@H](C)NC(=O)[C@@H](CC(C)C)N(C)C(=O)[C@@H]2CCCN2C(=O)[C@@H](CC(C)C)N(C)C(=O)[C@H](CC(C)C)N(C)C(=O)[C@H](Cc2ccccc2)NC1=O` [Design D10.21, *LEU *DLEU PRO *DLEU DALA *LEU PRO *DLEU LEU PHE] (cyclo(F[NMeL][dNMeL]P[dNMeL][dA][NMeL]P[dNMeL]L)): “not permeable”.

Still in this series, the particulars now being: PAMPA.
Consider `CC[C@H](C)[C@@H]1NC(=O)[C@H](C)NC(=O)[C@@H](CC(C)C)NC(=O)[C@H](CC(C)C)N(C)C(=O)[C@H](CC(C)C)NC(=O)[C@@H](Cc2ccccc2)N(C)C(=O)[C@@H]2CCCN2C(=O)[C@H]([C@@H](C)CC)NC(=O)[C@H](Cc2ccccc2)N(C)C(=O)[C@@H](CC(C)C)NC1=O` [Design D10.55, DLEU ALA ILE DLEU *PHE ILE PRO *DPHE LEU *LEU] (cyclo(AI[dL][NMeF]IP[dNMeF]L[NMeL][dL])), for which the PAMPA_Papp_Avg result is given as “BQL”, the PAMPA_R1 result is “BQL” and the PAMPA_R3 entry is reported as “BQL”.
Take `CC[C@H](C)[C@@H]1NC(=O)[C@@H]2CCCN2C(=O)[C@H]2CCCN2C(=O)[C@@H](CC(C)C)NC(=O)[C@@H](CC(C)C)N(C)C(=O)[C@@H]2CCCN2C(=O)[C@H](Cc2ccccc2)N(C)C(=O)[C@@H](Cc2ccc(O)cc2)NC1=O` [Design D8.13, PRO ILE DTYR *PHE PRO *DLEU DLEU DPRO] (cyclo(I[dY][NMeF]P[dNMeL][dL][dP]P)): the PAMPA_Papp_Avg result is listed as “BQL”, the PAMPA_R1 entry is given as “BQL” and the PAMPA_R3 entry is listed as “BQL”.
In the case of `CC(C)C[C@@H]1NC(=O)[C@H](CC(C)C)NC(=O)[C@H](C(C)C)NC(=O)[C@H](C)NC(=O)[C@@H]2CCCN2C(=O)[C@H]2CCCN2C(=O)[C@@H]2CCCN2C(=O)[C@H](C)N(C)C(=O)[C@@H](CC(C)C)N(C)C(=O)[C@@H]2CCCN2C(=O)[C@H](Cc2ccccc2)NC1=O` [Design D11.7, PHE PRO *DLEU *ALA PRO DPRO PRO ALA VAL LEU LEU] (cyclo(AVLLFP[dNMeL][NMeA]P[dP]P)), the PAMPA_Papp_Avg result is recorded as “BQL”, the PAMPA_R1 result was “BQL” and the PAMPA_R3 entry is “BQL”.
Regarding `CC[C@H](C)[C@@H]1NC(=O)[C@@H](CC(C)C)NC(=O)[C@H](CC(C)C)NC(=O)[C@H]2CCCN2C(=O)[C@@H]2CCCN2C(=O)[C@H](C)NC(=O)[C@H](Cc2ccccc2)N(C)C(=O)[C@@H](C(C)C)NC(=O)[C@H](Cc2ccccc2)N(C)C(=O)[C@@H](Cc2ccccc2)N(C)C1=O` [Design D10.51, ILE *DPHE *PHE DVAL *PHE ALA PRO DPRO LEU DLEU] (cyclo(AP[dP]L[dL]I[dNMeF][NMeF][dV][NMeF])), the PAMPA_Papp_Avg entry was “BQL”, the PAMPA_R1 entry is “BQL” and the PAMPA_R3 entry was “BQL”.
Take `CCCC[C@@H]1NC(=O)[C@H]2CCCN2C(=O)[C@@H]2CCCN2C(=O)[C@@H](C)NC(=O)[C@H]2CCCN2C(=O)[C@@H](C(C)C)NC(=O)[C@H](C(C)C)NC(=O)[C@@H](Cc2ccccc2)N(C)C(=O)[C@H](C)N(C)C1=O` [Design D9.31, PRO DPRO MET *ALA *DPHE VAL DVAL DPRO DALA] (cyclo([NMeA][dNMeF]V[dV][dP][dA]P[dP][Nle])): the PAMPA_Papp_Avg came out at 6.86E-08, the PAMPA_R1 was 6.96E-08 and the PAMPA_R3 is 5.29E-08.
Taken in the same sequence, the figures for `CC(C)C[C@H]1NC(=O)[C@H]2CCCN2C(=O)[C@@H]2CCCN2C(=O)[C@@H](Cc2ccccc2)NC(=O)[C@@H](C(C)C)NC(=O)[C@H](CC(C)C)N(C)C(=O)[C@@H](Cc2ccccc2)NC1=O` (single isomer, unassigned) [Design D7.7.p2, PRO DPRO DLEU DPHE *LEU DVAL DPHE] were 9.06e-06 cm/s, 7.93e-06 cm/s and 1.17e-05 cm/s.
In the same order, the values of `CC[C@H](C)[C@@H]1NC(=O)[C@H](Cc2ccccc2)NC(=O)[C@H]2CCCN2C(=O)[C@H]([C@@H](C)CC)NC(=O)[C@H](C(C)C)NC(=O)[C@@H](C)NC(=O)[C@H]2CCCN2C1=O` (single isomer, unassigned) [Design D7.8.p2, VAL ILE DPRO PHE ILE DPRO DALA] are 4.92e-06 cm/s, 4.52e-06 cm/s and 5.64e-06 cm/s.
As for `CC(C)C[C@@H]1NC(=O)[C@@H]2CCCN2C(=O)[C@H]2CCCN2C(=O)CN(C)C(=O)[C@@H](Cc2ccccc2)N(C)C(=O)[C@@H](CC(C)C)NC(=O)[C@@H](CC(C)C)N(C)C(=O)[C@@H]2CCCN2C(=O)[C@H](CC(C)C)N(C)C(=O)[C@H](CC(C)C)N(C)C1=O` [Design D10.22, PRO LEU *LEU *LEU PRO *DLEU DLEU *DPHE *GLY DPRO] (cyclo(L[NMeL][NMeL]P[dNMeL][dL][dNMeF][Sar][dP]P)), the PAMPA_Papp_Avg result was “BQL”, the PAMPA_R1 result is recorded as “BQL” and the PAMPA_R3 result was “BQL”.
As to `CC[C@H](C)[C@@H]1NC(=O)[C@H](Cc2ccccc2)N(C)C(=O)[C@H]2CCCN2C(=O)[C@@H](CC(C)C)N(C)C(=O)[C@@H](Cc2ccccc2)NC(=O)[C@H](C(C)C)NC(=O)[C@H](CC(C)C)NC(=O)[C@H]2CCCN2C(=O)[C@H](CC(C)C)NC(=O)[C@@H]2CCCN2C1=O` [Design D10.50, LEU VAL DPHE *DLEU DPRO *PHE ILE PRO LEU DPRO] (cyclo(IPL[dP]LV[dF][dNMeL][dP][NMeF])), the PAMPA_Papp_Avg is 6.28E-07, the PAMPA_R1 was found to be 8.97E-07 and the PAMPA_R3 is on record as 6.88E-07.
For `CC(C)C[C@@H]1NC(=O)[C@H](CC(C)C)N(C)C(=O)[C@@H](Cc2ccccc2)N(C)C(=O)[C@H](Cc2ccccc2)NC(=O)[C@@H]2CCCN2C(=O)[C@@H](C)NC(=O)[C@@H]2CCCN2C(=O)[C@H](CC(C)C)N(C)C(=O)[C@H](CC(C)C)N(C)C(=O)[C@@H](C(C)C)NC1=O` [Design D10.13, *LEU LEU DVAL *LEU *LEU PRO DALA PRO PHE *DPHE] (cyclo(F[dNMeF][NMeL]L[dV][NMeL][NMeL]P[dA]P)), the PAMPA_Papp_Avg entry is “BQL”, the PAMPA_R1 entry is listed as “BQL” and the PAMPA_R3 result is listed as “BQL”.
For `CC(C)C[C@@H]1NC(=O)[C@@H](CC(C)C)N(C)C(=O)[C@@H]2CCCN2C(=O)[C@H](CC(C)C)N(C)C(=O)[C@@H](C)NC(=O)[C@@H](CC(C)C)N(C)C(=O)[C@@H]2CCCN2C(=O)[C@@H](CC(C)C)N(C)C(=O)[C@H](CC(C)C)N(C)C(=O)[C@H](Cc2ccccc2)NC1=O` [Design D10.21, *LEU *DLEU PRO *DLEU DALA *LEU PRO *DLEU LEU PHE] (cyclo(F[NMeL][dNMeL]P[dNMeL][dA][NMeL]P[dNMeL]L)), the PAMPA_Papp_Avg result is “BQL”, the PAMPA_R1 result is listed as “BQL” and the PAMPA_R3 result is “BQL”.
With “PRO DPRO DALA DPHE DLEU ILE DPHE *DALA LEU PRO NLE [Design D11.14.p2]”, the PAMPA_Papp_Avg entry is listed as “BQL”, the PAMPA_R1 entry is listed as “BQL” and the PAMPA_R3 result is “BQL”.
On to “PRO DPRO DPHE *DLEU *DPHE DLEU ILE PRO *DLEU LEU [Design D10.15]”, for which the PAMPA_Papp_Avg entry was “BQL”, the PAMPA_R1 result is on record as “BQL” and the PAMPA_R3 entry is recorded as “BQL”.
As to `CC[C@H](C)[C@@H]1NC(=O)[C@H](CCSC)N(C)C(=O)[C@H]2CCCN2C(=O)[C@H](CC(C)C)NC(=O)[C@@H](Cc2ccccc2)NC(=O)[C@@H]2CCCN2C(=O)[C@H]2CCCN2C(=O)[C@H]([C@@H](C)CC)NC(=O)[C@@H](CC(C)C)N(C)C(=O)[C@H](CC(C)C)N(C)C1=O` [Design D10.36, ILE *LEU *DLEU ILE DPRO PRO DPHE LEU DPRO *MET] (cyclo([dF]L[dP][NMeM]I[NMeL][dNMeL]I[dP]P)), the PAMPA_Papp_Avg result is on record as “BQL”, the PAMPA_R1 entry was “BQL” and the PAMPA_R3 result was “BQL”.
With `CC(C)C[C@@H]1C(=O)N(C)[C@@H](Cc2ccccc2)C(=O)N[C@@H](C(C)C)C(=O)N2CCC[C@H]2C(=O)NCC(=O)N2CCC[C@H]2C(=O)N(C)[C@H](CC(C)C)C(=O)N[C@@H](C(C)C)C(=O)N[C@H](CC(C)C)C(=O)N1C` (single isomer, unassigned) [Design D9.43.p2, *DLEU VAL DLEU *DLEU *PHE VAL PRO GLY PRO], the PAMPA_Papp_Avg is on record as 3.30E-06, the PAMPA_R1 was 3.34E-06 and the PAMPA_R3 is 3.77E-06.
Taken in the same sequence, the figures for `CC[C@@H](C)[C@H]1NC(=O)[C@@H](CC(C)C)NC(=O)[C@@H](CC(C)C)NC(=O)[C@@H](C)NC(=O)[C@@H](CC(C)C)NC(=O)[C@H]2CCCN2C(=O)[C@@H]2CCCN2C(=O)[C@H]2CCCN2C(=O)[C@@H](C)NC(=O)[C@@H](CC(C)C)N(C)C(=O)[C@H]2CCCN2C1=O` [Design D11.19, DILE DPRO *DLEU DALA DPRO PRO DPRO DLEU DALA DLEU DLEU] (cyclo([dP][dL][dA][dL][dL][dI][dP][dNMeL][dA][dP]P)) were “BQL”, “BQL” and “BQL”.
With `CC[C@H](C)[C@@H]1NC(=O)[C@H](CC(C)C)NC(=O)[C@H](Cc2ccccc2)NC(=O)[C@@H](C)NC(=O)[C@H]2CCCN2C(=O)[C@@H]2CCCN2C(=O)[C@H]2CCCN2C(=O)[C@H](CC(C)C)NC(=O)[C@@H](C(C)C)NC(=O)[C@@H](CC(C)C)N(C)C(=O)[C@@H]2CCCN2C1=O` [Design D11.17, PRO *DLEU DVAL LEU DPRO PRO DPRO DALA PHE LEU ILE] (cyclo([dP][dA]FLIP[dNMeL][dV]L[dP]P)), the PAMPA_Papp_Avg entry is reported as “BQL”, the PAMPA_R1 entry is given as “BQL” and the PAMPA_R3 result is “BQL”.
In the case of “DPRO PRO *DLEU DALA PRO *DLEU ALA *GLY *DVAL DPHE [Design D10.7]”, the PAMPA_Papp_Avg entry is reported as “BQL”, the PAMPA_R1 entry was “BQL” and the PAMPA_R3 result is “BQL”.
Consider `CC[C@H](C)[C@@H]1NC(=O)[C@@H](C)N(C)C(=O)[C@@H](C)N(C)C(=O)[C@H](C(C)C)NC(=O)[C@H]2CCCN2C(=O)[C@@H]2CCCN2C(=O)[C@H](C(C)C)NC(=O)[C@H]2CCCN2C(=O)[C@@H]2CCCN2C1=O` [Design D9.12, PRO DPRO VAL PRO DPRO VAL *DALA *DALA ILE] (cyclo(IP[dP]VP[dP]V[dNMeA][dNMeA])), for which the PAMPA_Papp_Avg entry is “BQL”, the PAMPA_R1 entry is reported as “BQL” and the PAMPA_R3 entry was “BQL”.
With `CC(C)C[C@@H]1NC(=O)[C@H]2CCCN2C(=O)[C@@H]2CCCN2C(=O)[C@H](C)N(C)C(=O)[C@@H](C(C)C)NC(=O)[C@H](Cc2ccccc2)NC(=O)[C@H]2CCCN2C(=O)[C@@H]2CCCN2C(=O)[C@@H](CC(C)C)NC1=O` [Design D9.20, DLEU PRO DPRO PHE DVAL *ALA PRO DPRO LEU] (cyclo(F[dV][NMeA]P[dP]L[dL]P[dP])), the PAMPA_Papp_Avg entry is recorded as “BQL”, the PAMPA_R1 result was “BQL” and the PAMPA_R3 entry was “BQL”.
